Laboratory results: PMC12040169 (PLOS Biology, 2025)

test: in vitro; conditions: human, hela cells, % viability

Structure (SMILES) | viability at 28.5 h, 10 µM [%]
c1ccc(COc2ccc3[nH]c4c(c3c2)CCNC42CCCN(CC3CC3)C2)cc1 (stereo not drawn) [CBK040619] | 100
Cc1ccc(S(=O)(=O)NCCSc2nnc(Nc3ccccc3)s2)cc1 [CBK266345] | 106
NC(=O)CSc1nnc(COc2ccc(Br)cc2)n1-c1ccccc1 [CBK267277] | 101
COC(=O)c1c(C)oc2cc(Br)c(OCC(=O)c3ccc(Cl)cc3)cc12 [CBK264946] | 83.5
O=C(Nc1cccc(F)c1C(=O)Nc1ccc(F)cc1F)c1cccs1 [CBK066849] | 87.3
CCOC(=O)c1ccoc1C[N+](C)(CC)CC [CBK007022I] | 83.7
CCN1C(=O)C2(CC(=O)N(CCc3scnc3C)C2=O)c2cc(C)ccc21 (stereo not drawn) [CBK075217] | 96.8
CC(=O)Nc1cccc(NS(=O)(=O)c2ccc(N3CCNCC3)c3ccccc23)c1 [CBK028702C] | 105
O=C(O)c1c[nH]nc1-c1cccc(Br)c1 [CBK286963] | 91.1
CC1(C)CCCN1C1=NC(=O)C(c2ccccc2)O1 (stereo not drawn) [CBK023070] | 104
CC1CCN(Cc2ccc(-c3ccc(CNC(=O)c4ccc5c(c4)OC(F)(F)O5)s3)cc2)CC1 [CBK166113] | 107
CCCCOc1ccc(S(=O)(=O)Nc2ccc(-c3cn4ccccc4n3)cc2)cc1 [CBK264374] | 88.9
CC(=O)N1CCN(CC(O)Cn2c3ccccc3c3ccccc32)CC1 (stereo not drawn) [CBK305588] | 102
Cc1ccc(Cc2c(C)nc(N3CCN(Cc4ccccc4)CC3)[nH]c2=O)cc1 [CBK270170] | 115
CCOC(=O)N1CCN(c2cc3[nH]c(S)nc3cc2F)CC1 [CBK288444] | 89.9
CC(=O)NC[C@H]1CN(c2ccc(C3=CC[S+]([O-])CC3)c(F)c2)C(=O)O1 (stereo partly drawn) [CBK017555] | 92.5
CC(C)Oc1ncc(C(=O)N(CCC#N)Cc2ccco2)cc1Cl [CBK304908] | 91.6
Cc1oc2c(c1C(=O)NC(C)c1ccccn1)CCCC2 (stereo not drawn) [CBK281825] | 109
CN1CCN(c2ccc(-c3cncc(NC4CCOCC4)n3)cn2)CC1 [CBK037229] | 105
O=C(Cn1c([C@@H]2CCCO2)cc2cccnc21)N1CCCCC1 [CBK282286] | 90.3
O=C(COc1ccccc1)Nc1nnc(-c2ccccc2)o1 [CBK287599] | 99.8
CCCCCOc1ccc(NS(=O)(=O)c2cccc(C(=O)O)c2)cc1 [CBK299795] | 103
CC(C)CCc1c(O)nc(SCCN2CCOCC2)n(-c2ccccc2)c1=O [CBK263363C] | 85.5

Structure (SMILES) | viability at 28.5 h, 10 µM [%]
COc1ccc2[nH]c3c(c2c1)CCOC31CCN(C(=O)Nc2ccc(C(C)C)cc2)CC1 [CBK047154] | 95.5
COc1cccc(NC(=O)c2cnc(-c3ccccc3)c(-c3cccnc3)c2)c1OC [CBK037487] | 92.8
O=S(=O)(NCCc1ccccc1)c1cccc2nsnc12 [CBK261128] | 103
COc1ccc(CSCc2n[nH]c(=O)[nH]2)cc1[N+](=O)[O-] [CBK267425] | 101
O=C1NCCN1CCOc1nccnc1-c1cnn(Cc2ccccc2)c1 [CBK107094] | 86.3
COc1ccc(Nc2ccc(-c3cccc(N(C)C)c3)cn2)cn1 [CBK037588] | 95.5
O=C(O)CC1C(=O)NCCN1Cc1ccccc1Cl (stereo not drawn) [CBK270114] | 93
CCC(C)(C)c1ccc(S(=O)(=O)N2CCCN(Cc3ccnc4ccccc34)CC2)cc1 [CBK062865] | 92.1
COc1cccc(Oc2nccnc2-c2ccc(F)cc2)c1 [CBK106897] | 93.5
NCCSC1CC(=O)N(Cc2ccc(F)cc2)C1=O (stereo not drawn) [CBK269025C] | 101
O=c1[nH]c(=O)n([C@@H]2O[C@H](CO)[C@H](O)C2O)cc1Br (stereo partly drawn) [CBK201180] | 87.2
Nc1nc(=O)n([C@H]2C[C@@H](O)[C@@H](CO)O2)cc1Br [CBK201161] | 97.1
COc1cc(NC(=S)NCCN2CCOCC2)c(OC)cc1Cl [CBK265888] | 101
Cc1ccc(NC(=O)CCCn2cc([N+](=O)[O-])cn2)cc1Cl [CBK268485] | 76.6
COc1ccc2cc(C(=O)NCCCc3ccccn3)n(C)c2c1 [CBK282545] | 103
COc1nccnc1N1CCN(CC(N)=O)CC1 [CBK084219] | 98.4
O=C(CNS(=O)(=O)c1ccc(Br)cc1)N1CCN(Cc2ccc3c(c2)OCO3)CC1 [CBK074358] | 98.1
CCOC(=O)C1(C2CCCCC2)CCN(C(=O)CCC(=O)O)CC1 [CBK136939] | 95.9
CNC(=O)C1(Cc2ccc(-c3ccccc3)cc2)CCN(C(=O)c2ccccc2OC)CC1 [CBK285767] | 85.9
Cc1nc(C2CCN(C(=O)CCC3CCCO3)CC2)c2sccn12 (stereo not drawn) [CBK282240] | 106
COc1ccc(Cl)cc1NC(=O)C(=O)NCc1ccccn1 [CBK263837] | 90.2
CCOc1cc(OCC)cc(C(=O)N2CCC3(CC2)NC(=O)c2cc(I)ccc2O3)c1 [CBK166301] | 94.1
CC(C)CCCC(=O)n1ccn(CCCOc2ccccc2)c1=O [CBK106561] | 101

Structure (SMILES) | viability at 28.5 h, 10 µM [%]
O=C(NCc1nnc(-c2cccs2)o1)C(c1ccccc1)c1ccccc1 [CBK286294] | 92.6
CNC(=O)C1(Cc2ccccc2-c2ccccc2)CCN(C(=O)Cc2cccc(C)c2)CC1 [CBK285594] | 104
COc1ccc(CN(C)C(=O)CCc2c(C)nc3c(cnn3C(C)C)c2C)cc1 [CBK297087] | 80.6
Cc1cc(=O)[nH]c2c1c(=O)[nH]n2C1CCCCCC1 [CBK288381] | 80.8
Cc1nc(C)c(C(=O)NCC(C)(C)N2CCCCC2)o1 [CBK281866] | 94.2
CCNc1cccnc1N(CC)C1CCN(C(=O)c2cc3cc4c(cc3[nH]2)OCO4)CC1 [CBK016815] | 111
O=C(NC1CCCC1)c1cccnc1 [CBK200236] | 111
CC1CC(Nc2ccccc2)c2ccccc2N1 (stereo not drawn) [CBK057947] | 86.6
CCC(CN(C)C)C(=O)c1ccccc1 (stereo not drawn) [CBK015409C] | 95.1
CCn1c(=O)n(CC(=O)NCc2ccccc2F)c2cccnc21 [CBK283890] | 86.8
CC1=C[C@@H](CO)[C@H](C(C)C)C[C@H]1CC(=O)NCc1cccnc1 [CBK289218] | 81.7
CCCN1C(=O)N(CO)C2C1N(CO)C(=O)N2CCC (stereo not drawn) [CBK263882] | 101
O=C(CN1C(=O)c2ccc([N+](=O)[O-])cc2C1=O)Nc1cccc2c1C(=O)N(c1ccccc1)C2=O [CBK265576] | 84.7
O=C(CNS(=O)(=O)c1ccc(Br)cc1)NCc1cccnc1 [CBK266295] | 97.2
C=CCC1c2cccc(C(=O)O)c2C(=O)N1c1ccc(F)cc1 (stereo not drawn) [CBK113158] | 94.1
CC(=O)Nc1ccc(NC(=O)CCCC(=O)O)cc1 [CBK260984] | 104
CCN(CC)CC(=O)Nc1sc2c(c1C#N)CCCC2 [CBK261646] | 102
CC1CCc2c(C(=O)N3CC(C)OC(C)C3)csc2C1 (stereo not drawn) [CBK304442] | 106
CCN(CC)C(=O)[C@@H]1CCCN(C2CCN(C(=O)c3c4ccccc4cc4ccccc34)CC2)C1 [CBK066966C] | 90.4
COc1ccc(OC(C)C(=O)Nc2ccc(S(N)(=O)=O)cc2)cc1 (stereo not drawn) [CBK263646] | 96
COc1ccc(CNC(=O)C(=O)NCc2ccccc2)cc1 [CBK262158] | 103
Cc1onc(-c2ccccc2)c1CNC(=O)CC1CC1 [CBK144072] | 85.4
Cn1c(Cc2cccc3ccccc23)nnc1SCc1ccc([N+](=O)[O-])cc1 [CBK265898] | 93.6

Structure (SMILES) | viability at 28.5 h, 10 µM [%]
N#CCCc1ccc(Oc2ncc(C(F)(F)F)cc2Cl)cc1 [CBK161635] | 106
O=C(O)CC(NC(=O)c1ccco1)c1ccc(F)cc1 (stereo not drawn) [CBK057988] | 107
O=C(Nc1cccc(Cl)c1)N[C@H]1C[C@H]2C(=O)NC[C@@H](CCC(=O)N3CCCC3)N2C1 [CBK289003] | 96.1
COc1nc2ccn(CCN3C(=O)CCC3=O)c(=O)c2cc1C#N [CBK307422] | 94.7
O=S(=O)(c1ccc(Br)cc1C(F)(F)F)N1CCOCC1 [CBK062405] | 102
CC(=O)NC(C)(COc1nonc1C)COc1nonc1C [CBK265955] | 90.3
Cc1cc2ccccc2n2c(SCC(=O)Nc3nsc(-c4ccccc4)n3)nnc12 [CBK265673] | 116
CC(=O)c1cc(C(=O)Nc2ccc(NC(=O)C(=O)O)cc2)oc1C [CBK264011] | 95.4
COc1nccnc1NS(=O)(=O)c1ccc(Nc2c([N+](=O)[O-])cc([N+](=O)[O-])c3nonc23)cc1 [CBK261441] | 87.5
COC(=O)c1ccc(C)c(NS(=O)(=O)c2cc(Cl)ccc2Cl)c1 [CBK077971] | 90.9
COc1ccc(NC(=O)C(=O)N/N=C/c2ccc(C(=O)O)cc2)cc1 [CBK262255] | 95.5
O=c1oc2ccccc2n1C1CCN(Cc2nc3ccccc3n2Cc2ccccc2)CC1 [CBK286176] | 102
Cc1cc(C(=O)Nc2cccc3cc[nH]c23)ccc1Cl [CBK160078] | 96.2
O=C(NCCc1c[nH]c2ccccc12)NC(=O)C1CCNCC1 [CBK051094] | 90.2
COc1ccc(C2(C)NC(=O)N(CC(=O)Nc3ccc(NC(C)=O)cc3)C2=O)cc1 (stereo not drawn) [CBK295182] | 106
CCC(C)(C)c1ccc(S(=O)(=O)Nc2ccc(F)cc2F)cc1 [CBK200039] | 95.7
Cc1nc2ccc(C(=O)NC(c3ccccc3)c3cccnc3)cc2[nH]1 (stereo not drawn) [CBK283259] | 103
CCC(Sc1nc(O)cc(-c2ccccc2)n1)C(=O)O (stereo not drawn) [CBK287135] | 87.8
Clc1ccc(Nc2nnns2)cc1Cl [CBK005211] | 100
COc1cnc(-c2cnn(C)c2)c(NC(=O)Cc2ccccc2)n1 [CBK145327] | 101
CNC(=O)NC(=O)C1CCN(CCc2cccs2)CC1 [CBK034960] | 106
